Source: patent US12714728B2, “Methods for the production of cardiac fibroblasts” (FUJIFILM Cellular Dynamics, Inc., priority 2022, dated 2026)

Key:
[1] = system: iPS cells (WT1+ epicardial cells); experiment: Epicardial (WT1+) progenitor induction from iPS cells, CHIR dose titration / ABC; assay type: cell-based, human
Method: Cardiac mesoderm cells were then dissociated and contacted with a low concentration of Wnt inhibitor, XAV939, (Table 4) for two days to be specified into a WT1 epicardial lineage (FIG. 3A). The percentage of epicardial cells were measured in single CHIR, ABC, and double CHIR conditions. Epicardial induction with single CHIR or ABC step produced a mixed population of epicardial cells and cardiomyocytes. The percentage of WT1+ epicardial cells ranged from 30% WT1 to 90% WT1. These epicardial progenitors were used directly for cardiac fibroblast induction without additional passaging or purification of epicardial cells. A dose titration of CHIR was performed on iPS cells. […] A dose of 6 μM CHIR on Day 1 generated a population of 60% WT1 epicardial progenitor cells that have characteristic cobblestone morphology by Day 14 (FIG. 3C). […] When Activin and BMP were added with the single CHIR, the epicardial cells retained a flattened cobble stone morphology and dark, round nucleus. Cell-cell borders became less pronounced. There was no need to passage the epicardial cells. […] This was visible by increased cell numbers, decreased cell size, and more elongated morphology.

[2] = system: isogenic tri-culture cardiac microtissues (iPSC-derived cardiomyocytes, endothelial cells, cardiac fibroblasts); experiment: Calcium transient / inotropic response of isogenic tri-culture cardiac microtissues; assay type: cell-based, human; settings: for calcium amplitude inotropic response with increased CF content: DIV 14, 10,000 total cells, 20% endothelial cells, varying cardiac fibroblast content
Text: For the cardiac tri-culture microtissue assay, cryopreserved iPSC-derived cell types were combined in a specific ratio and formed into microtissues in microwell plates (FIG. 5A). Microtissues containing 65% iCell Cardiomyocytes, 20% iCell Endothelial cells, and 15% iPSC derived cardiac fibroblasts are shown in FIG. 5B. After 1-2 days, the microtissues were contracting.
Microtissues were fed a co-culture medium (Table 8) to support all three cell types. […] Microtissues were generated from three donor lines 11713, 01279, and 01434. Microtissues contained either iPSC-derived cardiomyocytes only or were tri-culture, containing isogenic iPSC-derived cardiomyocytes, iPSC-derived endothelial cells, and iPSC-derived cardiac fibroblasts. All microtissues were assayed for response to isoproterenol on Day 14 of culture. […] This response was in tri-culture microtissues from all three donor lines, in two independently produced lots of cardiac fibroblasts from donor 01434, and in microtissues containing cardiac fibroblasts from two independently derived clones from donor 11713 (11713.008 and 11713.847).
Response to dobutamine (DOB), digoxin (DIG), isoproterenol (ISO), and epinephrine (EPI) were assessed at DIV 14 on cardiac tri-culture microtissues comprised of 10,000 total cells and 20% iCell Endothelial Cells and iCell Cardiomyocytes and varying concentrations of iPSC derived cardiac fibroblasts (CF). […] (FIG. 6B).
(§1) Tri-culture microtissues were made from Normal Healthy Control (NHC) and isogenic LMNA-L35P iPSC-derived cell types. Fourteen days post microtissue formation, microtissues were challenged with isoproterenol.

[3] = system: ROCK1/ROCK2; settings: competing with ATP; cited from earlier work
[4] = system: iPSC derived cardiac fibroblasts; experiment: Activation of iPSC-derived cardiac fibroblasts with TGFβ; assay type: cell-based, human
Method: The cardiac fibroblasts were thawed and plated on vitronectin-coated plates at 10 k/cm^2 and activated with TGFβ. TGFβ was added at 20 ng/mL or 40 ng/mL to activate cardiac fibroblasts on Day 2, with a media change on Day 4. On Day 5, media supernatants were collected and analyzed for fibronectin secretion by a Human FN ELISA Kit Cat #BMS2028. On Day 3 and Day 5, cardiac fibroblasts were harvested and counted by ViCell-XR. After 5 days cells were collected for flow cytometry.

[5] = system: isogenic LMNA-L35P iPSC-derived tri-culture microtissues; experiment: Calcium transient response of LMNA-L35P disease model tri-culture microtissues; assay type: cell-based, human; settings: LMNA-L35P disease model microtissue; fourteen days post formation
Text: as §1

[6] = system: epicardial progenitors from the ABC method; experiment: Cardiac fibroblast differentiation in serum with varying basic FGF, CD29 positive cells; assay type: cell-based, human; settings: increasing concentrations of basic FGF, serum-containing medium
Method: Cardiac fibroblasts were induced in serum containing conditions on Day 25. The cells were fed DMEM-Low glucose, 10% FBS, Ascorbic Acid, and 200 ng/mL basic FGF and purified through successive passaging (Table 6). Cardiac fibroblasts were >85% positive for TE-7 and CD29 and quiescent (i.e., less than 5% αSMA) (FIG. 4A).

In the case of `Cc1c[nH]c(-c2cnc(NCCNc3ccc(C#N)cn3)nc2-c2ccc(Cl)cc2Cl)n1` [CHIR, CHIR99021], the “WT1 epicardial progenitor cells” value ([1]; 6 μM CHIR on Day 1, single CHIR method) is reported as 60% and the “effect of increasing dose on percentage of WT1+ epicardial cells” value ([1]; dose on Day 1, single CHIR method, read on Day 9) is reported as “did not increase the percentage of WT1+ epicardial cells”.

In the case of `C[C@H]1O[C@@H](O[C@H]2[C@@H](O)C[C@H](O[C@H]3[C@@H](O)C[C@H](O[C@H]4CC[C@@]5(C)[C@H](CC[C@@H]6[C@@H]5C[C@@H](O)[C@]5(C)[C@@H](C7=CC(=O)OC7)CC[C@]65O)C4)O[C@@H]3C)O[C@@H]2C)C[C@H](O)[C@@H]1O` [digoxin], the “calcium amplitude inotropic response with increased CF content” value [2] is reported as “increased calcium amplitude inotropic response”.

For `C[C@@H](N)[C@H]1CC[C@H](C(=O)Nc2ccncc2)CC1` [Y-27632], the IC50 [3] is listed as 800 nM.

For `CNC[C@H](O)c1ccc(O)c(O)c1` [epinephrine], the “calcium amplitude inotropic response with increased CF content” value [2] was “increased calcium amplitude inotropic response”.

With TGFβ the “gene expression by quantitative real-time PCR” value ([4]; 20 ng/mL TGFβ for 4 days, single CHIR and double CHIR cardiac fibroblasts) was “increased POSTN, DDR2, COL1A1, COL1A2, GJA1, and ACTA2 expression”, the “alpha smooth muscle actin expressing population (flow cytometry)” value ([4]; TGFβ 20 ng/mL or 40 ng/mL added Day 2, cells collected after 5 days) was “alpha smooth muscle actin expressing population was seen to emerge” and the fibronectin secretion ([4]; cardiac fibroblasts from serum-containing and serum-free induction) was “increased fibronectin secretion”.

With `CC(C)NCC(O)c1ccc(O)c(O)c1` (centres unmarked) [isoproterenol] the “response to isoproterenol (calcium transient amplitude)” value [5] was “did not respond”, the calcium transient amplitude ([2]; 100 nM isoproterenol, Normal Healthy Control microtissues, fourteen days post microtissue formation) was “increase in calcium transient amplitude” and the “calcium transient amplitude response to isoproterenol” value ([2]; Day 14 of culture, three donor lines) was “increase in calcium transient amplitude”. The “beat rate by calcium transient” value ([2]; in the presence of isoproterenol) was “increase in beat rate”.

For `CC(CCc1ccc(O)cc1)NCCc1ccc(O)c(O)c1` (centres unmarked) [dobutamine], the “calcium amplitude inotropic response with increased CF content” value [2] was “increased calcium amplitude inotropic response”.

In the case of “basic FGF: basic fibroblast growth factor used for cardiac fibroblast induction”, the “percentage of CD29 positive cells” value [6] is reported as “increase the percentage of CD29 positive cells”.
